Test results taken from publication PMC11056982, “Paraptotic Cell Death as an Unprecedented Mode of Action Observed for New Bipyridine-Silver(I) Compounds Bearing Phosphane Coligands” (Journal of Medicinal Chemistry, 2024).
Marks after values point to notes of the source that are not given here.

Columns and labels:
SK-OV-3/CBP = test: MTT viability assay in carboplatin-resistant SK-OV-3/CBP cells; type: cell-based, human; details: 72 h; for relative resistance (IC50 SK-OV-3/CBP divided by IC50 SK-OV-3): resistant subline vs parental line; for IC50: MTT, carboplatin-resistant subline, mean ± SD
Protocol: (§1) Cells were seeded (2 × 10^4 cells/well for HCT116, HCT116/OxR, 3 × 10^4 cells/well for HCT116 p53KO, 4 × 10^4 cells/well for MES-OV, SK-OV-3, and their respective CBP resistant counterparts) in 100 μL/well in 96-well plates and allowed to attach for 24 h at 37 °C and 5% CO2. Compounds were first dissolved in DMSO to a 10 mM stock solution and then further diluted in a growth medium (DMSO concentration <1%). After 24 h, cells were treated with 100 μL of different drugs dilutions in triplicates with the final concentrations of 0, 0.01, 0.05, 0.075, 0.1, 0.5, 0.75, 1, 2.5, 5, 7.5, and 10 μM depending on the compound and the cell line.

MES-OV = test: MTT viability assay in MES-OV ovarian carcinoma cells; type: cell-based, human; details: for cancer cells killed at lowest tested concentration: MES-OV, 0.05 μM; for cancer cells killed at lowest tested concentration / IC50: 72 h; for IC50: MTT, mean ± SD
Protocol: as §1

HCT116 WT/OxR = test: MTT viability assay in oxaliplatin-resistant HCT116 WT/OxR cells; type: cell-based, human; details: 72 h; for relative resistance (IC50 HCT116 WT/OxR divided by IC50 HCT116 WT): resistant subline vs parental line; for IC50: MTT, oxaliplatin-resistant subline, mean ± SD
Protocol: as §1

recombinant rat TrxR = target: T1, recombinant rat TrxR (Rattus norvegicus, UniProt O89049); test: Inhibition of mammalian TrxR (microplate reader-based DTNB assay); type: biochemical; details: cell-free assay
T1 construct: purchased Cayman Chemical
T1 sequence (O89049 1-499): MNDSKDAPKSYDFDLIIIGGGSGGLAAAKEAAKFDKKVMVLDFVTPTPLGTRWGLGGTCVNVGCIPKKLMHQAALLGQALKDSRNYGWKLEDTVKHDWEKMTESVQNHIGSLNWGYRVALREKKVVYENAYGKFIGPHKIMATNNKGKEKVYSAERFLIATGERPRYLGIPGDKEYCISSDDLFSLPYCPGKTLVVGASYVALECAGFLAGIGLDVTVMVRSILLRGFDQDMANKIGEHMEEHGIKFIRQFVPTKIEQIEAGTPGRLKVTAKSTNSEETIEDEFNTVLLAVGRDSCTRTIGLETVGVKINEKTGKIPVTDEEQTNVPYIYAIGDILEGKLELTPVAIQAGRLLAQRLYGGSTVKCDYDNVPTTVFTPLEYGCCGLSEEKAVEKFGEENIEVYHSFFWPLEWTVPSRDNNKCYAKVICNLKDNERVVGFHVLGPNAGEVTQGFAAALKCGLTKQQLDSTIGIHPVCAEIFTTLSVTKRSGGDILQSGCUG
Protocol: To determine the inhibition of mammalian TrxR, an established microplate reader-based assay was performed. For this purpose, commercially available recombinant rat TrxR (from Cayman Chemical) was used and diluted with distilled water to achieve a concentration of 0.12 U mL^–1. The compounds were freshly dissolved as stock solutions in DMSO. Aliquots (25 μL) of the enzyme solution and 25 μL of potassium phosphate buffer (pH 7.0) containing the compounds in graded concentrations (1% DMSO) were mixed. Positive controls were composed of 25 μL aliquots of the enzyme solution mixed with 25 μL 1% DMSO in buffer solution (no compounds). The final concentration of DMSO was 0.5% v/v in all samples. The blank solution was the highest used concentration of the compound in 0.5% DMSO in buffer solution (no enzyme). All resulting solutions were incubated with moderate shaking for 75 min at 37 °C in a 96-well plate. […] After proper mixing, the formation of 2-nitro-5-thiobenzoate (5-TNB) was monitored with a microplate reader at 405 nm 10 times in 35 s intervals for about 6 min. The increase in 5-TNB concentration over time followed a linear trend, and the enzymatic activities were calculated as the slopes (increase in absorbance per second) thereof. […] For the absorption measurements in the enzyme assay, a PerkinElmer 2030 Multilabel Reader VICTORTMX4 was used.

MES-OV cells [1] = test: Mitochondrial membrane potential by JC-1 stain (flow cytometry); type: cell-based, human; details: 24 h
Protocol: Cells were seeded in a density of (2–4) × 10^5 cells/well in six-well plates and in 1 mL culture medium containing 10% FBS. After 24 h recovery, cells were treated with the indicated compounds and concentrations. Next, the supernatant was collected followed by trypsinization of the cells and centrifugation at 300g for 5 min. In the following protocols, cells were stained with annexin V (AV) and propidium iodide (PI) for cell death analysis, with only PI for cell cycle analysis, or with 10 μg mL^–1 JC-1 for evaluation of the mitochondrial membrane potential as previously described.[54],[55]

MES-OV cells [2] = test: ROS detection by DCF-DA flow cytometry in MES-OV; type: cell-based, human; details: 24 h, 2.5 μM
Protocol: Cells were seeded 5 × 10^5 cells/mL in six-well plates. After 24 h treatment with the indicated concentration, cells were incubated with 10 μM 2′,7′-dichlorofluorescein diacetate (DCFH-DA, Sigma-Aldrich) in Hank’s balanced salt solution for 1 h at 37 °C. Subsequently, flow cytometry (with BD LSR Fortessa instrument, BD Biosciences, Franklin Lakes, NJ, USA) was performed to measure the median fluorescence signal of 20,000 single cells per sample. FlowJo (BD Biosciences, San Jose, CA, USA) and GraphPad Prism software (GraphPad Software Inc., San Diego, CA, USA) were to analyze the data.

[3] = Stability in PBS by LC-ESI(+)-HRMS/MS; type: physicochemical; details: 80 μM in PBS, monitored 48 h
Protocol: For the stability evaluation in PBS, 10 mM solutions of complexes 1, 4, and 7 were first prepared in DMSO. Two microliters of this solution were then added to PBS (250 μL) for a total concentration of 80 μM. Following centrifugation for 10 min at 3000 rpm, the resulting solutions were monitored by LC-ESI(+)-MS and LC-ESI(+)-HRMS for a period of 48 h.

MES-OV cells [4] = test: TEM analysis of subcellular morphology; type: cell-based, human; details: 24 h treatment
Protocol: MES-OV Cells were seeded (8 × 10^5 cells/mL) in […] in six-well plates. After 24 h, cells were treated with the selected compounds at the indicated concentration for another 24 h. Afterward, cells were collected, pelleted, and fixed in a solution of 2.5% glutaraldehyde and 2% paraformaldehyde in 0.1 M cacodylate buffer (pH 7.4) for 2 h at room temperature. Samples were subsequently washed 3 × 10 min in cacodylate buffer and postfixed in 1% osmium tetroxide for 1 h. After 3 × 10 min washing in cacodylate buffer, samples were dehydrated in an ethanol series (30–100%, 10 min each) and pure acetone (2 × 10 min) and gradually embedded in Epon 812 resin (Serva). Sections (40–50 nm) were prepared with a Leica UC7 ultramicrotome, mounted on copper mesh grids, and contrasted with 1% uranyl acetate (7 min) and 3% lead citrate (3 min). Imaging was performed with a Tecnai G2 20 transmission electron microscope at 80 kV equipped with an FEI Eagle 4K CCD camera (Center for Anatomy and Cell Biology). Image processing was performed in Fiji[57] using the CLAHE filter (enhance local contrast).

MES-OV cells [5] = test: Phase-contrast microscopy of cytoplasmic vacuoles; type: cell-based, human; details: 6 and 24 h treatment
Protocol: Cells were seeded 5 × 10^5/well in six-well plates after 24 h recovery treatment with compounds 1, 4, and 7 was performed with the indicated concentrations. After 6 and 24 h, phase-contrast images of the cells were taken with a Zeiss Primovert microscope (20× magnification). To determinate the percentage of vacuolated cells, images (three images each condition) were analyzed by ImageJ, and vacuolated cells were counted.

SK-OV-3 = test: MTT viability assay in SK-OV-3 ovarian carcinoma cells; type: cell-based, human; details: 72 h, mean ± SD of three independent experiments
Protocol: as §1

MES-OV/CBP = test: MTT viability assay in carboplatin-resistant MES-OV/CBP cells; type: cell-based, human; details: 72 h; for IC50: MTT, carboplatin-resistant subline, mean ± SD; for relative resistance (IC50 MES-OV/CBP divided by IC50 MES-OV): resistant subline vs parental line
Protocol: as §1

F331 = test: MTT viability assay in nonmalignant fibroblasts F331; type: cell-based, human; details: 72 h, mean ± SD
HCT116 WT = test: MTT viability assay in HCT116 WT colon carcinoma cells; type: cell-based, human; details: 72 h, mean ± SD
Protocol: as §1

HCT116 p53KO = test: MTT viability assay in p53-deleted HCT116 p53KO cells; type: cell-based, human; details: 72 h, p53-deleted subclone, mean ± SD
Protocol: as §1

Compound	relative resistance (IC50 SK-OV-3/CBP divided by IC50 SK-OV-3) (SK-OV-3/CBP)	relative resistance (IC50 HCT116 WT/OxR divided by IC50 HCT116 WT) (HCT116 WT/OxR)	IC50 (SK-OV-3)	IC50 (SK-OV-3/CBP)	IC50 (MES-OV)	IC50 (MES-OV/CBP)	IC50 (F331)	IC50 (HCT116 WT)	IC50 (HCT116 WT/OxR)	IC50 (HCT116 p53KO)	other results
O=S(=O)([O-])C(F)(F)F.[Ag+].c1ccc(-c2ccccn2)nc1.c1ccc(P(CCP(c2ccccc2)c2ccccc2)c2ccccc2)cc1 [Compound 4, [Ag(2,2′-bipy)(dppe)][CF3SO3]]	0.8^n.s.	0.9^n.s.	–	–	–	–	–	–	–	–	cancer cells killed at lowest tested concentration (MES-OV): more than 50%; TrxR inhibition strength relative to 7 (recombinant rat TrxR): 10 fold; cells with mitochondrial depolarization (low Δψ fraction) (MES-OV cells [1]; 10 μM): 50%; ROS levels increase (peak) (MES-OV cells [2]): ~5 fold; stability in PBS [3]: immediate rearrangement of the ligands to afford a mixture between AgP2 and AgN2 species; vacuole diameter (TEM) (MES-OV cells [4]): 300–1500 nm; cytoplasmic vacuole formation (phase contrast) (MES-OV cells [5]): induced pronounced cytoplasmic vacuoles only after 24 h incubation
[Ag(4,4′-CH3-2,2′-bipy)(dppe)][CF3SO3] [Compound 5]	0.9^n.s.	1.0^n.s.	6860 ± 1550 nM	6500 ± 1290 nM	60 ± 30 nM	60 ± 30 nM	8520 ± 900 nM	740 ± 60 nM	750 ± 80 nM	430 ± 50 nM	relative resistance (IC50 MES-OV/CBP divided by IC50 MES-OV) (MES-OV/CBP): 1.0^n.s.
O=C1[O][Pt]2([NH][C@@H]3CCCC[C@H]3[NH]2)[O]C1=O [oxaliplatin, reference compound]	–	>14**	–	–	–	–	–	720 ± 180 nM	> 10000 nM	2370 ± 450 nM	–
Cc1ccnc(-c2cc(C)ccn2)c1.O=S(=O)([O-])C(F)(F)F.[Ag+].c1ccc(P(c2ccccc2)c2ccccc2)cc1 [Compound 2, [Ag(4,4′-CH3-2,2′-bipy)(PPh3)][CF3SO3]]	1.5^n.s.	0.9^n.s.	–	–	–	–	–	–	–	–	–
O=S(=O)([O-])C(F)(F)F.OCc1ccnc(-c2cc(CO)ccn2)c1.[Ag+].c1ccc(P(c2ccccc2)c2ccccc2)cc1 [Compound 3, [Ag(4,4′-CH2OH-2,2′-bipy)(PPh3)][CF3SO3]]	1.4^n.s.	0.7^n.s.	–	–	–	–	–	–	–	–	relative resistance (IC50 MES-OV/CBP divided by IC50 MES-OV) (MES-OV/CBP): 0.8^n.s.
N.N.O=C([O-])C1(C(=O)[O-])CCC1.[Pt+2] [carboplatin, reference compound]	1.6*	–	56500 ± 15400 nM	89900 ± 5640 nM	44300 ± 7090 nM	94700 ± 9240 nM	–	–	–	–	–
[Ag(dppe)2][CF3SO3] [Compound 7]	–	1.1^n.s.	–	5970 ± 1420 nM	< 50 nM	50 ± 20 nM	5780 ± 500 nM	350 ± 40 nM	380 ± 50 nM	340 ± 10 nM	activity relative to 4 after 24 h (MES-OV; 24 h MTT (Table S2)): about twofold more active than 4; cells with mitochondrial depolarization (low Δψ fraction) (MES-OV cells [1]; 1 μM): 30%; cells with mitochondrial depolarization (low Δψ fraction) (MES-OV cells [1]; 10 μM): 90%; ROS levels increase (peak) (MES-OV cells [2]): ~5 fold; stability in PBS [3]: stable under these conditions; diameter of big vacuoles (TEM) (MES-OV cells [4]): up to 7.5 μm; cytoplasmic vacuole formation (phase contrast) (MES-OV cells [5]): formation of cytoplasmic vacuoles near the nucleus within the cytoplasm was observed
[Ag(4,4′-CH2OH-2,2′-bipy)(dppe)][CF3SO3] [Compound 6]	0.8^n.s.	0.8^n.s.	6500 ± 1660 nM	5520 ± 2200 nM	< 50 nM	< 50 nM	> 10000 nM	640 ± 60 nM	540 ± 110 nM	490 ± 140 nM	cancer cells killed at lowest tested concentration (MES-OV): more than 50%
